How the values were obtained:
[1] = target: T1, CRAF (Homo sapiens, UniProt P04049); assay: CRAF kinase activity assay (ADP-Glo); format: biochemical; settings: Table 3; 10 μM ATP, kinase-dead MEK1 substrate
T1 construct: fused on or other part: GST tag (N-terminal according to the vendor's product)
How it was run: (§1)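 ADP-Glo luminescence read after 2 h reactions at 30° C containing 0.375 nM GST-kinase, kinase-dead MEK1 (75 nM), ATP at 10 μM, pH 7.5 HEPES/MgCl2/DTT, 0.05% DMSO. Compounds dosed from 100 to 0.01 nM (nine points); IC50 from variable-slope fit of % inhibition.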

[2] = target: T2, BRAF (Homo sapiens, UniProt P15056); assay: BRAF kinase activity assay (ADP-Glo); format: biochemical; settings: Table 3; 10 μM ATP, kinase-dead MEK1 substrate
T2 construct: GST; purchased Millipore Sigma B4062-10UG
How it was run: as §1

[3] = tested on: pERK, HCT116 cells; assay: Phospho-ERK inhibition, AlphaLISA p-ERK 1/2, HCT-116; format: cell-based, human; settings: Table 3; for IC50: HCT116 cells (KRAS G13D), 1 h treatment; for HCT116 pERK (Ymin %): lowest % inhibition value of the pERK IC50 curve, above −20% = no paradoxical induction
How it was run: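 Cells in RPMI-1640 with 5% FBS plated overnight, then treated 1 h with ten-point dilutions (10 μM to 0.33 nM, 0.5% DMSO). Lysate p-ERK1/2 (Thr202/Tyr204) read by AlphaLISA SureFire Ultra; % inhibition normalised to DMSO and 1 μM trametinib background, IC50 by four-parameter fit.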

T1 sequence (P04049 whole entry Y340E/Y341E, form open, the tested form may be a part): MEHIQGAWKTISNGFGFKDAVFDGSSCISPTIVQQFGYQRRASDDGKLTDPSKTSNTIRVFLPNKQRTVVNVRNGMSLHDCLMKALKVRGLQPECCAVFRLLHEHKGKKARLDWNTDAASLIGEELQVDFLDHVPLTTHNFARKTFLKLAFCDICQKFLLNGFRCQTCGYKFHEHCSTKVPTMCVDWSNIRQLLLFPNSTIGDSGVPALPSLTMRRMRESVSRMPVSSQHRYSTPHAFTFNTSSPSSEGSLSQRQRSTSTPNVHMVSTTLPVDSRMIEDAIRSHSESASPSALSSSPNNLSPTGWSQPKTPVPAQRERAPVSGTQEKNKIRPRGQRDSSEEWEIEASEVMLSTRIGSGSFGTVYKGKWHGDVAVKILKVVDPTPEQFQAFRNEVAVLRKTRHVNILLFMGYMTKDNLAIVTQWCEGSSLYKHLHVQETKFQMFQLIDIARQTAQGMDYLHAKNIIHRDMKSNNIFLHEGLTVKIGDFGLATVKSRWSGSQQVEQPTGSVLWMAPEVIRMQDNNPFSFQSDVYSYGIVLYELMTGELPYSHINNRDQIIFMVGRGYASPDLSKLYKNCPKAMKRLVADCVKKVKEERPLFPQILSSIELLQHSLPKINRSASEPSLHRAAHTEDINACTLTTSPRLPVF
T2 sequence (P15056 whole entry): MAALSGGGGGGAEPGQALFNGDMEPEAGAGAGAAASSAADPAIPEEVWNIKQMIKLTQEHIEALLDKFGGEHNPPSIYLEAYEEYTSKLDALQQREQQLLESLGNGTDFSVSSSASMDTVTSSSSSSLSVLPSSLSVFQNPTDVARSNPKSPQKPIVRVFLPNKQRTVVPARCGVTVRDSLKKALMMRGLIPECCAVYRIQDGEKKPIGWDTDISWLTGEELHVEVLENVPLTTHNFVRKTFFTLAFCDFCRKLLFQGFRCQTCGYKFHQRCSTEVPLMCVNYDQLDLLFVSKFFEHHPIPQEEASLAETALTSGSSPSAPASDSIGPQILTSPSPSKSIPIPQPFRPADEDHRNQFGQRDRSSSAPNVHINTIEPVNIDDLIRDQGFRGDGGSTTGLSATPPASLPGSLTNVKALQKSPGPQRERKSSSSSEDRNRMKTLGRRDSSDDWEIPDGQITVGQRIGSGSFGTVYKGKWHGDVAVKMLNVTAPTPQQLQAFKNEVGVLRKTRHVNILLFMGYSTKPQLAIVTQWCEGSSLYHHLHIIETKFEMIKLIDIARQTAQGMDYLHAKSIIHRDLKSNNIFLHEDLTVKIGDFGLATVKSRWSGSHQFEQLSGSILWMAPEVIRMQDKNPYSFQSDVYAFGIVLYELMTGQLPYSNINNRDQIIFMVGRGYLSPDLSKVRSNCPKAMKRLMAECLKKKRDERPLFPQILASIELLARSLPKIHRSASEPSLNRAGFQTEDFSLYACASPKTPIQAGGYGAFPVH

| IC50 [1] [nM] | IC50 [2] [nM] | IC50 [3] [nM] | IC50 ([3]; Homo sapiens, HCT-116) [nM] | SMILES | HCT116 pERK (Ymin %) [3] [%] |
| --- | --- | --- | --- | --- | --- |
| < 10 | < 1 | 500 to 1000 | – | O=C(c1cn(-c2nc3c(Nc4c(F)ccc(NS(=O)(=O)c5cccc(Cl)c5Cl)c4F)ncnc3s2)c2ccccc12)N1CCC(CO)C1 (stereo not shown) [Example 52] | −9 |
| < 10 | 1 to 10 | 500 to 1000 | – | O=S(=O)(Nc1ccc(F)c(Nc2ncnc3sc(-n4cnc5cc(F)c(F)cc54)nc23)c1F)c1cccc(Cl)c1Cl [Example 19] | −14 |
| > 50 | > 10 | – | 1000 to 10000 | CCC(=O)c1cn(-c2nc3c(Nc4c(F)ccc(NS(=O)(=O)c5cccc(Cl)c5Cl)c4F)ncnc3s2)c2ccccc12 [Example 91] | – |
| < 10 | < 1 | < 500 | – | Cc1c(F)cccc1S(=O)(=O)Nc1ccc(F)c(Nc2ncnc3sc(-n4cc(C(=O)N5C6CCC5COC6)c5ccccc54)nc23)c1F [Example 40] | −7 |
| < 10 | < 1 | < 500 | – | O=S1(=O)CCN(c2cccc3c2ncn3-c2nc3c(Nc4c(F)ccc(NS(=O)(=O)c5cccc(Cl)c5Cl)c4F)ncnc3s2)CC1 [Example 158] | 4 |
| < 10 | 1 to 10 | – | < 500 | O=S(=O)(Nc1ccc(F)c(Nc2ncnc3sc(-n4cnc5c(F)cc(OCCO)cc54)nc23)c1F)c1cccc(Cl)c1Cl [Example 100] | – |
| < 10 | 1 to 10 | < 500 | – | CC1(O)CCN(C(=O)c2cn(-c3nc4c(Nc5c(F)ccc(NS(=O)(=O)c6cccc(Cl)c6Cl)c5F)ncnc4s3)c3ccccc23)CC1 [Example 85] | 8 |
| < 10 | < 1 | < 500 | – | CC1(N)CCN(c2cccc3c2ncn3-c2nc3c(Nc4c(F)ccc(NS(=O)(=O)c5cccc(Cl)c5Cl)c4F)ncnc3s2)CC1 [Example 157] | −14 |
| > 50 | 1 to 10 | < 500 | – | O=S(=O)(Nc1ccc(F)c(Nc2ncnc3sc(-n4cc(S(=O)(=O)N5C6CCC5COC6)c5ccccc54)nc23)c1F)c1cccc(Cl)c1Cl [Example 67] | 0 |
| 10 to 50 | 1 to 10 | < 500 | – | CCC1(O)CCN(c2cccc3c2ncn3-c2nc3c(Nc4c(F)ccc(NS(=O)(=O)c5cccc(Cl)c5Cl)c4F)ncnc3s2)CC1 [Example 149] | 16 |
| < 10 | 1 to 10 | < 500 | – | Nc1cccc2c1ncn2-c1nc2c(Nc3c(F)ccc(NS(=O)(=O)c4cccc(Cl)c4Cl)c3F)ncnc2s1 [Example 3] | −9 |
| > 50 | > 10 | < 500 | – | COc1ccc(S(=O)(=O)Nc2ccc(F)c(Nc3ncnc4sc(-n5cnc6c(C(C)(C)C#N)cccc65)nc34)c2F)c(C)c1F [Example 118] | −14 |
| 10 to 50 | > 10 | 500 to 1000 | – | COc1ccc(S(=O)(=O)Nc2ccc(F)c(Nc3ncnc4sc(-n5cnc6c(C(C)(C)C#N)cccc65)nc34)c2F)c(C)c1Cl [Example 117] | −15 |
| 10 to 50 | 1 to 10 | 1000 to 10000 | – | Nc1ccncc1-c1cccc2c1ncn2-c1nc2c(Nc3c(F)ccc(NS(=O)(=O)c4cccc(Cl)c4Cl)c3F)ncnc2s1 [Example 133] | −12 |
| 10 to 50 | 1 to 10 | < 500 | – | N#CC1CCN(c2cccc3c2ncn3-c2nc3c(Nc4c(F)ccc(NS(=O)(=O)c5cccc(Cl)c5Cl)c4F)ncnc3s2)CC1 [Example 140] | −10 |
| > 50 | > 10 | – | 1000 to 10000 | Cc1c(F)cccc1S(=O)(=O)Nc1ccc(F)c(Nc2ncnc3sc(-c4cncs4)nc23)c1F [Example 154, N-[2,4-difluoro-3-[(2-thiazol-5-ylthiazolo[5,4-d]pyrimidin-7-yl)amino]phenyl]-3-fluoro-2-methyl-benzenesulfonamide] | – |
| < 10 | 1 to 10 | < 500 | – | CC(C)(O)[C@@H]1CCN(C(=O)c2cn(-c3nc4c(Nc5c(F)ccc(NS(=O)(=O)c6cccc(Cl)c6Cl)c5F)ncnc4s3)c3ccccc23)C1 [Example 90] | −6 |
| < 10 | 1 to 10 | < 500 | – | CC1(O)CN(C(=O)c2cn(-c3nc4c(Nc5c(F)ccc(NS(=O)(=O)c6cccc(Cl)c6Cl)c5F)ncnc4s3)c3ccccc23)C1 [Example 94] | −10 |
| < 10 | 1 to 10 | 1000 to 10000 | – | O=S(=O)(Nc1ccc(F)c(Nc2ncnc3sc(-n4cc(S(=O)(=O)N5CC(CO)C5)c5ccccc54)nc23)c1F)c1cccc(Cl)c1Cl [Example 74] | −9 |
| < 10 | < 1 | < 500 | – | O=S(=O)(Nc1ccc(F)c(Nc2ncnc3sc(-n4cnc5c(N6CCN(CCO)CC6)cccc54)nc23)c1F)c1cccc(Cl)c1Cl [Example 152] | 0 |
| 10 to 50 | 1 to 10 | < 500 | – | CN1CC2CCC(C1)N2S(=O)(=O)c1cn(-c2nc3c(Nc4c(F)ccc(NS(=O)(=O)c5cccc(Cl)c5Cl)c4F)ncnc3s2)c2ccccc12 [Example 68] | −6 |
| > 50 | > 10 | 1000 to 10000 | – | Cc1c(F)cccc1S(=O)(=O)Nc1ccc(F)c(Nc2ncnc3sc(-n4nnc5ccccc54)nc23)c1F [Example 22] | −8 |

More lines, now with the values behind:

| SMILES | IC50 [1] [nM] | IC50 [2] [nM] | IC50 [3] [nM] | IC50 ([3]; Homo sapiens, HCT-116) [nM] | HCT116 pERK (Ymin %) [3] [%] |
| --- | --- | --- | --- | --- | --- |
| COCCOCCOc1cccc2c1ncn2-c1nc2c(Nc3c(F)ccc(NS(=O)(=O)c4cccc(Cl)c4Cl)c3F)ncnc2s1 [Example 131] | < 10 | 1 to 10 | < 500 | – | 0 |
| CCN(CCOC)S(=O)(=O)c1cn(-c2nc3c(Nc4c(F)ccc(NS(=O)(=O)c5cccc(Cl)c5Cl)c4F)ncnc3s2)c2ccccc12 [Example 70] | 10 to 50 | > 10 | – | 500 to 1000 | – |
| Cc1c(Cl)cccc1S(=O)(=O)Nc1ccc(F)c(Nc2ncnc3sc(-n4cnc5c(-c6cccnc6)cccc54)nc23)c1F [Example 10] | 10 to 50 | 1 to 10 | 1000 to 10000 | – | −2 |
| Cc1c(F)cccc1S(=O)(=O)Nc1ccc(F)c(Nc2ncnc3sc(-n4cc(C(=O)N(C)Cc5cccnc5)c5ccccc54)nc23)c1F [Example 31] | < 10 | 1 to 10 | 500 to 1000 | – | 7 |
| CS(=O)(=O)c1cn(-c2nc3c(Nc4c(F)ccc(NS(=O)(=O)c5cccc(Cl)c5Cl)c4F)ncnc3s2)c2ccccc12 [Example 72] | < 10 | 1 to 10 | – | 500 to 1000 | – |
| CN(CC(F)F)S(=O)(=O)c1cn(-c2nc3c(Nc4c(F)ccc(NS(=O)(=O)c5cccc(Cl)c5Cl)c4F)ncnc3s2)c2ccccc12 [Example 75] | 10 to 50 | > 10 | 1000 to 10000 | – | −5 |
| O=C(c1cccs1)c1cn(-c2nc3c(Nc4c(F)ccc(NS(=O)(=O)c5cccc(Cl)c5Cl)c4F)ncnc3s2)c2ccccc12 [Example 107] | > 50 | > 10 | – | 1000 to 10000 | – |
| C[C@@H]1CN(S(=O)(=O)c2cn(-c3nc4c(Nc5c(F)ccc(NS(=O)(=O)c6cccc(Cl)c6Cl)c5F)ncnc4s3)c3ccccc23)C[C@H](C)N1 [Example 82] | 10 to 50 | 1 to 10 | 500 to 1000 | – | −13 |
| O=S(=O)(Nc1ccc(F)c(Nc2ncnc3sc(-n4cnc5c(N6CC7CC6CO7)cccc54)nc23)c1F)c1cccc(Cl)c1Cl (stereo not shown) [Example 127] | 10 to 50 | 1 to 10 | < 500 | – | 1 |
| Cc1c(F)cccc1S(=O)(=O)Nc1ccc(F)c(Nc2ncnc3sc(-n4cnc5c(N)cccc54)nc23)c1F [Example 2] | 10 to 50 | 1 to 10 | < 500 | – | −1 |
| Cc1c(Cl)cccc1S(=O)(=O)Nc1ccc(F)c(Nc2ncnc3sc(-n4cnc5c(N)cccc54)nc23)c1F [Example 5] | < 10 | 1 to 10 | < 500 | – | −6 |
| O=S(=O)(Nc1ccc(F)c(Nc2ncnc3sc(-n4cnc5c(F)cc(F)cc54)nc23)c1F)c1cccc(Cl)c1Cl [Example 71] | < 10 | 1 to 10 | – | < 500 | – |
| O=S(=O)(Nc1ccc(F)c(Nc2ncnc3sc(-n4cnc5c(C(F)(F)F)cccc54)nc23)c1F)c1cccc(Cl)c1Cl [Example 17] | 10 to 50 | 1 to 10 | – | 1000 to 10000 | – |
| CN(Cc1ccncc1)S(=O)(=O)c1cn(-c2nc3c(Nc4c(F)ccc(NS(=O)(=O)c5cccc(Cl)c5Cl)c4F)ncnc3s2)c2ccccc12 [Example 11] | < 10 | 1 to 10 | 1000 to 10000 | – | 4 |
| Cc1c(F)cccc1S(=O)(=O)Nc1ccc(F)c(Nc2ncnc3sc(-n4cnc5c(-c6cccnc6)cccc54)nc23)c1F [Example 8] | 10 to 50 | 1 to 10 | – | 500 to 1000 | – |

— US20260137697A1, “THIAZOLO[5,4-D]PYRIMIDINE COMPOUNDS, COMPOSITIONS COMPRISING THEM AND USES THEREOF” (University de Montreal, priority 2022, published 2026)
